According to article PMC9653804, “Multifunctional Derivatives of Spiropyrrolidine Tethered Indeno-Quinoxaline Heterocyclic Hybrids as Potent Antimicrobial, Antioxidant and Antidiabetic Agents: Design, Synthesis, In Vitro and In Silico Approaches” (Molecules, 2022):
Converted amounts (≈) assume the structure as drawn.

Columns and labels:
[1] = test system: Candida krusei ATCC 6258; assay: Antifungal activity (MIC, MFC) against C. krusei; type: cell-based; conditions: C. krusei ATCC 6258, '-' = No activity; for MFC / MIC: Pichia kudriavzevii, ATCC6258
[2] = test system: Micrococccus luteus NCIMB 8166; assay: Antimicrobial activity (MIC, MBC) against M. luteus; type: cell-based; conditions: M. luteus NCIMB 8166; '-' = No activity
[3] = DPPH free radical scavenging activity; conditions: for IC50: DPPH radical scavenging
Method: DPPH, the stable artificial free radicals, has been widely used for the measurement of free radical scavenging capacity of the compounds in ethanol and aqueous systems. Briefly, 2 mL DPPH solution (0.2 mM, in 95% ethanol) was incubated with 2 mL different concentrations of compounds solution. Then, the reaction mixture was shaken and incubated in the dark for 40 min at room temperature. The absorbance was immediately recorded at 517 nm against ethanol with a spectrophotometer (Metash, model UV-5200, Shanghai Xiwen Biotech. Co., Ltd, Shanghai, China). The DPPH free radical scavenging rate was calculated using the equation:DPPH scavenging activity (%) = A0 − A1/A0 × 100 where A0 was the absorbance of the control reaction (containing all reagents except the tested compound), and A1 was the absorbance of the test reaction (containing all reagents with the tested compound). The percentage of DPPH radical scavenging activity was plotted against the sample concentration to acquire the IC50 value, defined as the concentration of sample necessary to cause 50% inhibition. Radical scavenging activity (RSA) was calculated from the IC50 value as the equation: RSA = pIC50 = −lg[IC50]. The smaller the IC50 value, the larger is the RSA value and the higher is the antioxidant activity.

[4] = test system: Escherichia coli ATCC 25922; assay: Antimicrobial activity (MIC, MBC) against E. coli; type: cell-based; conditions: E. coli ATCC 25922; '-' = No activity
[5] = Radical scavenging activity ABTS; conditions: for IC50: ABTS radical scavenging
Method: The ABTS assay was performed as previously described by Tuberoso et al.. ABTS^+ radical was generated by oxidation of ABTS with potassium persulfate. The blue–green ABTS was produced through the reaction between 2 mM ABTS and […] potassium persulfate in water. The mixture was left to stand in the dark for 12 to 16 h before use. The ABTS solution was diluted with methanol to an absorbance of 0.700 ± 0.005 at 734 nm. Then 2 mL of diluted ABTS solution was mixed with 100 μL of samples and absorbance was measured after 1 min incubation at room temperature. A standard curve was obtained by using Trolox as standard solution. The results were expressed as μM Trolox equivalent.
The mixture of 7 mmol/L aqueous ABTS solution with 2.45 mmol/L potassium persulfate solution constitutes a stable ABTS^+ stock solution that was allowed to stand in the dark and at room temperature for 12 to 16 h before use. A 1 mL sample of the diluted ABTS solution (adjusted to 0.7 ± 0.02 at […]) was added to 10 μL of each product. The absorbance was determined after 6 min. The percentage inhibition of the ABTS˙ radical was calculated from the following equation:% inhibition = (Abscontrol − Abstest)/Abscontrol × 100
Abs control: the control absorbance.
Abs test: the absorbance of the test sample after 6 min.

[6] = Ferric reducing power assay (FRAP)
[7] = test system: Candida albicans ATCC 90028; assay: Antifungal activity (MIC, MFC) against C. albicans; type: cell-based; conditions: C. albicans ATCC 90028, '-' = No activity; for MFC/MIC: fungicidal ≤ 4, fungistatic > 4
[8] = Ferric reducing power assay (FRAP); conditions: relative to standard Trolox
Method: The FRAP assay was used to determine the AC of the products by the reduction of Fe(III) and Fe (II). Briefly, Fe(III) was reduced to Fe(II), and Fe(II) was mixed with TPTZ to form a blue complex with strong absorption peak at 593 nm at pH = 3.6 condition. Acetate buffer (pH = 3.6), TPTZ solution (10 mM, in 40 mM hydrochloric acid) and FeCl3 solution (20 mM, in water) were mixed in a ratio of 10:1:1 to prepare FRAP working solution. The products solution (0.5 mL) was mixed with 4.0 mL FRAP working solution, and reacted at 37 °C for 30 min in the dark, and the absorbance at 593 nm was immediately recorded with a spectrophotometer. The result was expressed as the equivalent amount of Trolox per mole of the samples (mol TE/mol).

[9] = test system: Pseudomonas aeruginosa ATCC 27853; assay: Antimicrobial activity (MIC, MBC) against P. aeruginosa; type: cell-based; conditions: P. aeruginosa ATCC 27853; '-' = No activity
[10] = test system: Staphylococcus aureus ATCC 25923; assay: Antimicrobial activity (MIC, MBC) against S. aureus; type: cell-based; conditions: S. aureus ATCC 25923; for MBC/MIC: bactericidal ≤ 4, bacteriostatic > 4; for MIC: Staphylococcus aureus, ATCC25923, '-' = No activity

| SMILES | MFC/MIC [1] | MFC [1] [mM] | MIC [1] [mM] | MBC/MIC [2] | IC50 [3] [µM] | DPPH scavenging activity, fold better than Trolox ([3]; relative to standard Trolox) [fold] | MBC/MIC [4] | IC50 [5] [µM] | ABTS scavenging activity, fold higher than Trolox ([5]; relative to standard Trolox) [fold] | IC50 [6] [µM] | MFC/MIC [7] | MFC ([7]; Candida albicans, ATCC90028) [mM] | MIC ([7]; Candida albicans, ATCC90028) [mM] | FRAP activity, fold higher than Trolox [8] | melting point [°C] | MBC/MIC [9] | MBC/MIC [10] | MIC [10] [mM] |
| --- | --- | --- | --- | --- | --- | --- | --- | --- | --- | --- | --- | --- | --- | --- | --- | --- | --- | --- |
| CN1C(=O)CC2(C1=O)C(c1ccc(Cl)cc1)CN(C)C21c2ccccc2-c2nc3ccccc3nc21 (stereo not drawn) [5e, Spiro [2,11″]indeno-[1,2b]-quinoxaline-spiro-[3,3′]-N-methylsuccinimide-4-(4-chlorophenyl)hexahydro-1H-pyrrolidines] | 1 | 31.4 (≈ 15.6 mg/mL) | 31.4 (≈ 15.6 mg/mL) | 1 | 6.12 ± 0.01 | 5.1 | 2 | 12.2 ± 0.18 | ~8 | 6.54 ± 0.18 | 1 | 62.9 (≈ 31.1 mg/mL) | 62.9 (≈ 31.1 mg/mL) | about 6.5 fold | 182 to 184 | 4 | 16 | 15.7 (≈ 7.78 mg/mL) |
| CN1C(=O)CC2(C1=O)C(c1cccc(Cl)c1)CN(C)C21c2ccccc2-c2nc3ccccc3nc21 (stereo not drawn) [5i, Spiro [2,11″]indeno-[1,2b]-quinoxaline-spiro-[3,3′]-N-methylsuccinimide-4-(3-chloro-phenyl)hexahydro-1H-pyrrolidines] | 1 | 31.4 (≈ 15.6 mg/mL) | 31.4 (≈ 15.6 mg/mL) | 1 | 7.8 ± 0.32 | – | 2 | 11.4 ± 0.36 | – | 5.98 ± 0.52 | – | – | – | about 6.5 fold | 193 to 195 | 4 | 4 | – |
| CN1C(=O)CC2(C1=O)C(c1cccs1)CN(C)C21c2ccccc2-c2nc3ccccc3nc21 (stereo not drawn) [5h, Spiro [2,11″]indeno-[1,2b]-quinoxaline-spiro-[3,3′]-N-methylsuccinimide-4-(4-thiophenyl)hexahydro-1H-pyrrolidines] | 1 | 66.7 (≈ 31.1 mg/mL) | 66.7 (≈ 31.1 mg/mL) | 1 | 19.1 ± 0.23 | – | 2 | 18.04 ± 0.13 | – | 6.32 ± 0.68 | 4 | – | 66.7 (≈ 31.1 mg/mL) | about 6.5 fold | 203 to 205 | 2 | 16 | 33.3 (≈ 15.6 mg/mL) |
